Literature values as cited in patent US8586054B2, “Method for modulating, treating and/or preventing metabolic syndrome using MAS-G-protein-coupled receptor agonists” (Max-Delbruck-Centrum fur Molekulare Medizin, priority 2006, dated 2013).

Assays:
[1] = LIFE study; compared with atenolol
[2] = HOPE study; versus placebo
[3] = VALUE study; hypertensive patients, valsartan versus amlodipine

For `CCCCc1nc(Cl)c(CO)n1Cc1ccc(-c2ccccc2-c2nn[nH]n2)cc1` [Losartan], the “reduction in the appearance of new cases of diabetes” value [1] is listed as 25%.

For `CCOC(=O)[C@H](CCc1ccccc1)N[C@@H](C)C(=O)N1[C@H](C(=O)O)C[C@@H]2CCC[C@@H]21` [ramipril], the “incidence of diabetes lower than in the group that received placebo” value [2] is given as 34%.

In the case of `CCCCC(=O)N(Cc1ccc(-c2ccccc2-c2nnn[nH]2)cc1)[C@H](C(=O)O)C(C)C` [valsartan], the “reduction in new cases of diabetes” value [3] is listed as 23%.
